Measurements taken from ChEMBL document CHEMBL3885881, “DrugMatrix”.

Organism: Rattus norvegicus
Assay: DrugMatrix - Regimen: Daily Repeat
Assay type: toxicity, organism-based, Sprague-Dawley
Parameters: regimen Daily Repeat, gender Male, age 6-8 weeks
Details: in vivo, po, route oral GAVAGE, vehicle 100 % WATER; for ABSOLUTE BASOPHIL / ABSOLUTE EOSINOPHIL / ABSOLUTE LYMPHOCYTE / ABSOLUTE MONOCYTE / ABSOLUTE SEGMENTED NEUTROPHIL / BASOPHIL / EOSINOPHIL / ERYTHROCYTE COUNT / HEMATOCRIT / HEMOGLOBIN / LEUKOCYTE COUNT / LYMPHOCYTE / MEAN CORPUSCULAR HEMOGLOBIN / MEAN CORPUSCULAR HEMOGLOBIN CONCENTRATION / MEAN CORPUSCULAR VOLUME / MONOCYTE / NEUTROPHIL / NUCLEATED RED BLOOD CELLS / PLATELET COUNT: tissue Blood; for ALANINE AMINOTRANSFERASE / ALBUMIN / ALKALINE PHOSPHATASE / ASPARTATE AMINOTRANSFERASE / BLOOD UREA NITROGEN / CARBON DIOXIDE / CHLORIDE / CHOLESTEROL / CREATINE PHOSPHOKINASE / CREATININE / GLUCOSE / LACTATE DEHYDROGENASE / LIPASE / PHOSPHORUS / POTASSIUM / SODIUM / TOTAL BILIRUBIN / TOTAL PROTEIN / URIC ACID: tissue Plasma
[1] = 14 mg/kg, 120 h, dose level Low, time 5 day
[2] = 1000 mg/kg, 72 h, dose level High, time 3 day
[3] = 1000 mg/kg, 120 h, dose level High, time 5 day

`C[C@H]1c2cccc(O)c2C(=O)C2=C(O)[C@]3(O)C(=O)C(C(N)=O)=C(O)[C@@H](N(C)C)[C@@H]3[C@@H](O)[C@@H]21.O` [DOXYCYCLINE] was tested, and the “ABSOLUTE BASOPHIL” value [1] was 0 CELLS/uL, the “ABSOLUTE EOSINOPHIL” value [1] was 22.33 CELLS/uL and the “ABSOLUTE LYMPHOCYTE” value [1] was 6462.67 CELLS/uL. The “ABSOLUTE MONOCYTE” value [1] was 105.33 CELLS/uL, the “ABSOLUTE SEGMENTED NEUTROPHIL” value [1] was 909.67 CELLS/uL and the BASOPHIL [1] was 0%. The EOSINOPHIL [1] was 0.33%, the “ERYTHROCYTE COUNT” value [1] was 5.81 x10E6/uL and the HEMATOCRIT [1] was 36.47%. The HEMOGLOBIN [1] was 13.87 G/DL, the “LEUKOCYTE COUNT” value [1] was 7.5 x10E3/uL and the LYMPHOCYTE [1] was 86.67%. For the same compound, the “MEAN CORPUSCULAR HEMOGLOBIN” value [1] was 23.9 pg, the “MEAN CORPUSCULAR HEMOGLOBIN CONCENTRATION” value [1] was 38.1 G/DL and the “MEAN CORPUSCULAR VOLUME” value [1] was 62.77 fL. For the same compound, the MONOCYTE [1] was 1.33%, the NEUTROPHIL [1] was 11.67% and the “NUCLEATED RED BLOOD CELLS” value [1] was 0.33 /100WBC. For the same compound, the “PLATELET COUNT” value [1] was 1055 x10E3/uL, the “ALANINE AMINOTRANSFERASE” value [1] was 56.67 u/L and the ALBUMIN [1] was 4.23 G/DL. For the same compound, the “ALKALINE PHOSPHATASE” value [1] was 411.33 u/L, the “ASPARTATE AMINOTRANSFERASE” value [1] was 92 u/L and the “BLOOD UREA NITROGEN” value [1] was 17.67 mg/dL. The “CARBON DIOXIDE” value [1] was 32 mmol/L, the CHLORIDE [1] was 101.67 MEQ/L and the CHOLESTEROL [1] was 67 mg/dL. For the same compound, the “CREATINE PHOSPHOKINASE” value [1] was 551.33 u/L, the CREATININE [1] was 0.19 mg/dL and the GLUCOSE [1] was 154.67 mg/dL. For the same compound, the “LACTATE DEHYDROGENASE” value [1] was 117 u/L, the LIPASE [1] was 11 u/L and the PHOSPHORUS [1] was 11.33 mg/dL. For the same compound, the POTASSIUM [1] was 6.02 MEQ/L, the SODIUM [1] was 147 MEQ/L and the “TOTAL BILIRUBIN” value [1] was 0.1 mg/dL. For the same compound, the “TOTAL PROTEIN” value [1] was 6.37 G/DL, the “URIC ACID” value [1] was 0.8 mg/dL and the “ABSOLUTE BASOPHIL” value [2] was 0 CELLS/uL. For the same compound, the “ABSOLUTE EOSINOPHIL” value [2] was 0 CELLS/uL, the “ABSOLUTE LYMPHOCYTE” value [2] was 7696.67 CELLS/uL and the “ABSOLUTE MONOCYTE” value [2] was 0 CELLS/uL. The “ABSOLUTE SEGMENTED NEUTROPHIL” value [2] was 736.67 CELLS/uL, the BASOPHIL [2] was 0% and the EOSINOPHIL [2] was 0%. The “ERYTHROCYTE COUNT” value [2] was 5.23 x10E6/uL, the HEMATOCRIT [2] was 32.1% and the HEMOGLOBIN [2] was 12.57 G/DL. The “LEUKOCYTE COUNT” value [2] was 8.43 x10E3/uL, the LYMPHOCYTE [2] was 92.33% and the “MEAN CORPUSCULAR HEMOGLOBIN” value [2] was 24.07 pg. The “MEAN CORPUSCULAR HEMOGLOBIN CONCENTRATION” value [2] was 39.17 G/DL, the “MEAN CORPUSCULAR VOLUME” value [2] was 61.4 fL and the MONOCYTE [2] was 0%. The NEUTROPHIL [2] was 7.67%, the “NUCLEATED RED BLOOD CELLS” value [2] was 0 /100WBC and the “PLATELET COUNT” value [2] was 1333.67 x10E3/uL. The “ALANINE AMINOTRANSFERASE” value [2] was 59.33 u/L, the ALBUMIN [2] was 4.03 G/DL and the “ALKALINE PHOSPHATASE” value [2] was 294.67 u/L. The “ASPARTATE AMINOTRANSFERASE” value [2] was 81 u/L, the “BLOOD UREA NITROGEN” value [2] was 14.67 mg/dL and the “CARBON DIOXIDE” value [2] was 32.33 mmol/L. For the same compound, the CHLORIDE [2] was 103 MEQ/L, the CHOLESTEROL [2] was 89 mg/dL and the “CREATINE PHOSPHOKINASE” value [2] was 186 u/L. The CREATININE [2] was 0.18 mg/dL, the GLUCOSE [2] was 146 mg/dL and the “LACTATE DEHYDROGENASE” value [2] was 161.33 u/L. For the same compound, the LIPASE [2] was 12.33 u/L, the PHOSPHORUS [2] was 10.9 mg/dL and the POTASSIUM [2] was 5.89 MEQ/L. The SODIUM [2] was 146.35 MEQ/L, the “TOTAL BILIRUBIN” value [2] was 0.0667 mg/dL and the “TOTAL PROTEIN” value [2] was 5.97 G/DL. The “URIC ACID” value [2] was 1.2 mg/dL, the “ABSOLUTE BASOPHIL” value [3] was 0 CELLS/uL and the “ABSOLUTE EOSINOPHIL” value [3] was 19.67 CELLS/uL. The “ABSOLUTE LYMPHOCYTE” value [3] was 6922.33 CELLS/uL, the “ABSOLUTE MONOCYTE” value [3] was 67.67 CELLS/uL and the “ABSOLUTE SEGMENTED NEUTROPHIL” value [3] was 1023.67 CELLS/uL. For the same compound, the BASOPHIL [3] was 0%, the EOSINOPHIL [3] was 0.33% and the “ERYTHROCYTE COUNT” value [3] was 5.99 x10E6/uL. The HEMATOCRIT [3] was 36.73%, the HEMOGLOBIN [3] was 14.13 G/DL and the “LEUKOCYTE COUNT” value [3] was 8.03 x10E3/uL. For the same compound, the LYMPHOCYTE [3] was 85.67%, the “MEAN CORPUSCULAR HEMOGLOBIN” value [3] was 23.63 pg and the “MEAN CORPUSCULAR HEMOGLOBIN CONCENTRATION” value [3] was 38.53 G/DL. The “MEAN CORPUSCULAR VOLUME” value [3] was 61.37 fL, the MONOCYTE [3] was 1% and the NEUTROPHIL [3] was 13%. For the same compound, the “NUCLEATED RED BLOOD CELLS” value [3] was 0 /100WBC, the “PLATELET COUNT” value [3] was 1104.67 x10E3/uL and the “ALANINE AMINOTRANSFERASE” value [3] was 56 u/L. The ALBUMIN [3] was 3.97 G/DL, the “ALKALINE PHOSPHATASE” value [3] was 312 u/L and the “ASPARTATE AMINOTRANSFERASE” value [3] was 84.33 u/L. The “BLOOD UREA NITROGEN” value [3] was 21 mg/dL, the “CARBON DIOXIDE” value [3] was 32 mmol/L and the CHLORIDE [3] was 99.67 MEQ/L. For the same compound, the CHOLESTEROL [3] was 87.33 mg/dL, the “CREATINE PHOSPHOKINASE” value [3] was 239.67 u/L and the CREATININE [3] was 0.26 mg/dL. For the same compound, the GLUCOSE [3] was 138 mg/dL, the “LACTATE DEHYDROGENASE” value [3] was 100.67 u/L and the LIPASE [3] was 11.33 u/L. The PHOSPHORUS [3] was 10.53 mg/dL, the POTASSIUM [3] was 6.12 MEQ/L and the SODIUM [3] was 146.5 MEQ/L. For the same compound, the “TOTAL BILIRUBIN” value [3] was 0.13 mg/dL, the “TOTAL PROTEIN” value [3] was 5.87 G/DL and the “URIC ACID” value [3] was 0.97 mg/dL.
